The source of these data is PMC2365198, “Chemistry and Pharmacokinetics of Gallium Maltolate, a Compound With High Oral Gallium Bioavailability” (Metal-Based Drugs, 2000).

For data set [1] the following is noted: dog, in vivo, 1.5 mg/kg.
Data set [2] is described as follows: Pharmacokinetics of single oral dose of gallium chloride in cancer patients (data of Collery et al.). The data set is classed as in vivo, human. The settings on record: data of ref 12.
On the set-up of data set [3]: method as in earlier work. The settings on record: human cancer patients, single oral dose 800 mg (317 mg Ga); cited from earlier work.
Data set [4] in a line: Dog bioavailability study (serum gallium). The settings on record: healthy young beagle dogs, intraduodenal or oral.
A short description of data set [5]: Stability of dilute aqueous solution as a function of pH (absorbance at 303 nm). Format: physicochemical.
Data set [6] can be described thus: Clinical single-dose escalation study, pharmacokinetics of oral gallium maltolate (serum and urine gallium). The settings on record: human; for FAe: cumulative urinary excretion as fraction of administered dose: 72h; for F (V=29.5 L): from V/F.
For another data set, the system named is healthy human subjects. The data set can be described thus: Clinical single-dose escalation study, safety and tolerability.
Another data set in a line: Solubility in water. The settings on record: 25 C; listed as GaM. The data set is classed as physicochemical.
The conditions of data set [7]: human, in vivo, po.
[8] abbreviates: single oral dose 100 mg [15.7 mg Ga].
[9] abbreviates: single oral dose 200 mg [31.3 mg Ga].
[10] abbreviates: single oral dose 300 mg [47.0 mg Ga].
Where [11] appears, read: single oral dose 500 mg [78.4 mg Ga].

Several values for one entry are separate records, joined by “and”; a condition that tells them apart may be missing. Identical values can stand only once.

With `O=[N+]([O-])[O-].O=[N+]([O-])[O-].O=[N+]([O-])[O-].[Ga+3]` [Ga nitrate, gallium nitrate], in [1], the Cmax is 0.31 (0.02) lg/mL, the K01 half life is listed as 0.8(0.2) h, the Tmax is on record as 3.1 (0.4) h and the beta half life is listed as 9.9(2.4) h.
Consider `[Cl][Ga]([Cl])[Cl]` [GaCI3, gallium chloride], for which the “Gallium bioavailability using the estimated value for V/F” value in data set [2] (human cancer patients, single oral dose 800 mg (317 mg Ga)) is “approximately 0.010”. The Estimated oral bioavailability in data set [2] (human, oral) is reported as ≤ 2%. Also, the “Estimated V/F” value in [3] is recorded as 2862(297) L.
As for `Cc1occc(=O)c1[O-].Cc1occc(=O)c1[O-].Cc1occc(=O)c1[O-].[Ga+3]` [gallium maltolate, tris(3-hydroxy-2-methyl-4H-pyran-4-onato)gallium], the “Absorption of Ga into blood plasma relative to intraduodenal Ga nitrate” value in [4] is recorded as “several times higher”. In addition, in [5] (2.5 x 10^-5 M, pH 5.5-8.0), the “Dissociation in dilute aqueous solution” value is recorded as “little dissociation”. Also, the “Gallium maltolate complex undissociated” value in [5] (dilute aqueous solution (2.5 x 10^-5 M), pH approximately 5.5 to 8) is recorded as “at least 98%”. The “Dose dependence of absorption” value in data set [6] (oral, dosage range 100-500 mg) is on record as “dose proportional”. Besides, the “Urinary Ga excretion, of the administered dose” value in [6] (oral, over 72h) is given as “approximately 2%”. Also, in [6] (setting [8]), the “Ae: cumulative urinary excretion of gallium in 72h” value (shortened to “Ae … in 72h”) is given as 0.35(0.14) mg, the Lag time is recorded as 0.32(0.05) h, the “FAe: cumulative urinary excretion as fraction of administered dose” value (shortened to “FAe … as fraction of administered dose”) was 0.022(0.001) and the “F (V=29.5 L)” value is 0.28. Also, in data set [6] (setting [9]), the “Ae … in 72h” value is given as 0.66(0.28) mg, the Lag time is reported as 0.42(0.04) h, the “FAe … as fraction of administered dose” value is listed as 0.021(0.001) and the “F (V=29.5 L)” value turned out to be 0.35. In data set [6] (setting [10]), the “Ae … in 72h” value is 1.11(0.08) mg, the Lag time was 0.24(0.06) h, the “FAe … as fraction of administered dose” value is 0.023(0.000) and the “F (V=29.5 L)” value was determined as 0.40. Moreover, in data set [6] (setting [11]), the “Ae … in 72h” value is on record as 1.37(0.52) mg, the Lag time is recorded as 0.20(0.08) h, the “FAe … as fraction of administered dose” value is recorded as 0.018(0.001) and the “F (V=29.5 L)” value was 0.25. In addition, the “Central compartment excretion half life” value in data set [6] (single oral doses 100-500 mg) was 17 to 21 h. Besides, in data set [6] (single oral doses 100-500 mg, comparison with published i.v. gallium nitrate data), the “Estimated oral gallium bioavailability” value is given as 25-57%. The “Change in renal function (serum creatinine clearance, serum urea, BUN clearance, urinary microglobulin, urinalysis)” value with healthy human subjects (healthy human subjects, oral) is reported as “none of the subjects who took oral GaM showed any change in renal function”. In addition, the “Serious treatment-related adverse events” value with healthy human subjects (healthy human subjects, single oral doses 100-500 mg) is listed as “no reports of serious treatment-related adverse events”. Besides, the “Subjects reporting possible drug-related adverse events” value with healthy human subjects (healthy human subjects, single oral doses 100-500 mg, mild headache (100 mg), moderate coughs (200 mg)) is “Three of the twelve subjects”. Moreover, the Tolerability result with healthy human subjects (healthy human volunteers, single oral doses of 100, 200, 300 and 500 mg) is listed as “very well tolerated”. Further, in “Solubility in water”, the Solubility in water was 10.7 ± 0.9 mg/mL and 24(2) mM. Moreover, in [7], the “F, range over doses (from V/F with V 29.5 L)” value is recorded as 0.25-0.40.
